ChEMBL document CHEMBL4814067, “An optimized analog of antimicrobial peptide Jelleine-1 shows enhanced antimicrobial activity against multidrug resistant P. aeruginosa and negligible toxicity in vitro and in vivo” (Eur J Med Chem, 2021)
Active and inactive are the calls of the source. The calls are words filed in the database; no cut-off is given here.

Experiments:
[1] = tested on: Escherichia coli; experiment: Antibacterial activity against Escherichia coli ATCC 25922 assessed as transparent well by visual inspection after 18 hrs by CLSI based-broth microdilution method; format: functional
[2] = tested on: Pseudomonas aeruginosa; experiment: Antibacterial activity against Pseudomonas aeruginosa ATCC 27853 assessed as transparent well by visual inspection after 18 hrs by CLSI based-broth microdilution method; format: functional
[3] = tested on: Enterobacter sp.; experiment: Antibacterial activity against Enterobacter sakazakii ATCC 29544 assessed as transparent well by visual inspection after 18 hrs by CLSI based-broth microdilution method; format: functional
[4] = tested on: Staphylococcus aureus; experiment: Antibacterial activity against Staphylococcus aureus ATCC 29213 assessed as transparent well by visual inspection after 18 hrs by CLSI based-broth microdilution method; format: functional; conditions: C1 ATCC 29213
[5] = tested on: Bacillus subtilis; experiment: Antibacterial activity against Bacillus subtilis ATCC 23857 assessed as transparent well by visual inspection after 18 hrs by CLSI based-broth microdilution method; format: functional
[6] = tested on: Staphylococcus epidermidis; experiment: Antibacterial activity against Staphylococcus epidermidis ATCC 12228 assessed as transparent well by visual inspection after 18 hrs by CLSI based-broth microdilution method; format: functional
[7] = tested on: Staphylococcus aureus; experiment: Antibacterial activity against methicillin resistant Staphylococcus aureus clinical isolate 1 assessed as transparent well by visual inspection after 18 hrs by CLSI based-broth microdilution method; format: functional; conditions: C1
[8] = tested on: Staphylococcus aureus; experiment: Antibacterial activity against methicillin resistant Staphylococcus aureus clinical isolate 2 assessed as transparent well by visual inspection after 18 hrs by CLSI based-broth microdilution method; format: functional
[9] = tested on: Staphylococcus aureus; experiment: Antibacterial activity against methicillin resistant Staphylococcus aureus clinical isolate 3 assessed as transparent well by visual inspection after 18 hrs by CLSI based-broth microdilution method; format: functional
[10] = tested on: Staphylococcus aureus; experiment: Antibacterial activity against methicillin resistant Staphylococcus aureus clinical isolate 4 assessed as transparent well by visual inspection after 18 hrs by CLSI based-broth microdilution method; format: functional
[11] = tested on: Escherichia coli; experiment: Antibacterial activity against ESBL-producing Escherichia coli clinical isolate 1 assessed as transparent well by visual inspection after 18 hrs by CLSI based-broth microdilution method; format: functional
[12] = tested on: Escherichia coli; experiment: Antibacterial activity against ESBL-producing Escherichia coli clinical isolate 2 assessed as transparent well by visual inspection after 18 hrs by CLSI based-broth microdilution method; format: functional
[13] = tested on: Escherichia coli; experiment: Antibacterial activity against ESBL-producing Escherichia coli clinical isolate 3 assessed as transparent well by visual inspection after 18 hrs by CLSI based-broth microdilution method; format: functional
[14] = tested on: Escherichia coli; experiment: Antibacterial activity against ESBL-producing Escherichia coli clinical isolate 4 assessed as transparent well by visual inspection after 18 hrs by CLSI based-broth microdilution method; format: functional
[15] = tested on: Escherichia coli; experiment: Antibacterial activity against ESBL-producing Escherichia coli clinical isolate 5 assessed as transparent well by visual inspection after 18 hrs by CLSI based-broth microdilution method; format: functional
[16] = tested on: Pseudomonas aeruginosa; experiment: Antibacterial activity against Pseudomonas aeruginosa clinical isolate assessed as transparent well by visual inspection after 18 hrs by CLSI based-broth microdilution method; format: functional
[17] = tested on: Erythrocyte; experiment: Haemolytic activity in human erythrocytes by optical absorption assay; format: ADME, cell-based
[18] = tested on: NIH3T3; experiment: Cytotoxicity against mouse NIH/3T3 assessed as reduction in cell viability measured after 24 hrs by MTT assay; format: cell-based; conditions: nih3t3, 24 h
[19] = tested on: RAW264.7; experiment: Cytotoxicity against mouse RAW264.7 assessed as reduction in cell viability measured after 24 hrs by MTT assay; format: cell-based; conditions: raw264.7, 24 h
[20] = tested on: HeLa; experiment: Cytotoxicity against human HeLa cells assessed as reduction in cell viability measured after 24 hrs by MTT assay; format: cell-based
[21] = tested on: Staphylococcus aureus; experiment: Bactericidal activity against Staphylococcus aureus assessed as killing effect at 2 times MIC measured at 60 mins by bacterial colony counting assay; format: functional; conditions: 1 h
[22] = tested on: Escherichia coli; experiment: Bactericidal activity against Escherichia coli assessed as killing effect at 2 times MIC measured at 60 mins by bacterial colony counting assay; format: functional; conditions: 1 h
[23] = tested on: Staphylococcus aureus; experiment: Bactericidal activity against Staphylococcus aureus assessed as killing effect at 1 times MIC measured at 240 mins by bacterial colony counting assay; format: functional, organism-based
[24] = tested on: Escherichia coli; experiment: Bactericidal activity against Escherichia coli assessed as killing effect at 1 times MIC measured at 120 mins by bacterial colony counting assay; format: functional, organism-based
[25] = tested on: Pseudomonas aeruginosa; experiment: Inhibition of biofilm formation in multidrug-resistant Pseudomonas aeruginosa at 64 uM measured after 24 hrs by crystal violet staining based assay; format: functional
[26] = tested on: Cell membrane; experiment: Induction of outer membrane permeabilization in Escherichia coli using NPN hydrophobic fluorescent probe at 1 to 8 times of MIC measured for 15 mins by multimode reader
[27] = tested on: Cell membrane; experiment: Induction of inner membrane permeabilization in Escherichia coli ML-35 assessed as increase in ONPG at 1 to 8 times of MIC measured 100 mins by multimode reader
[28] = tested on: Pseudomonas aeruginosa; experiment: Antimicrobial activity against multidrug-resistant Pseudomonas aeruginosa infected in peritonitis sepsis mouse model assessed as increase in mouse survival rate at 10 mg/kg, ip measured after 3 days; format: functional, organism-based; conditions: time 3.0 day
[29] = tested on: Pseudomonas aeruginosa; experiment: Antimicrobial activity against multidrug-resistant Pseudomonas aeruginosa infected in peritonitis sepsis mouse model assessed as increase in mouse survival rate at 30 mg/kg, ip measured after 7 days; format: functional, organism-based; conditions: time 7.0 day
[30] = Toxicity in mouse assessed as effect on alanine aminotransferase level at 10 to 30 mg/kg, ip measured after 8 days; format: organism-based; conditions: in vivo, 192 h, dose 10-30 mg/kg, time 8 day
[31] = Toxicity in mouse assessed as effect on aspartate transaminase level at 10 to 30 mg/kg, ip measured after 8 days; format: organism-based; conditions: in vivo, 192 h, dose 10-30 mg/kg, time 8 day
[32] = Toxicity in mouse assessed as effect on total protein level at 10 to 30 mg/kg, ip measured after 8 days; format: organism-based; conditions: in vivo, 192 h, dose 10-30 mg/kg, time 8 day
[33] = Toxicity in mouse assessed as effect on total albumin level at 10 to 30 mg/kg, ip measured after 8 days; format: organism-based; conditions: in vivo, 192 h, dose 10-30 mg/kg, time 8 day
[34] = Toxicity in mouse assessed as effect on body weight at 10 to 30 mg/kg, ip measured after 8 days; format: organism-based; conditions: in vivo, 192 h, dose 10-30 mg/kg, time 8 day
[35] = tested on: Staphylococcus aureus; experiment: Bactericidal activity against Staphylococcus aureus assessed as killing effect at 1 times MIC measured at 120 mins by bacterial colony counting assay; format: functional, organism-based
[36] = tested on: Pseudomonas aeruginosa; experiment: Inhibition of biofilm formation in multidrug-resistant Pseudomonas aeruginosa at 256 uM measured after 24 hrs by crystal violet staining based assay; format: functional, organism-based
[37] = tested on: Erythrocyte; experiment: Haemolytic activity in human erythrocytes at 256 uM by optical absorption assay; format: ADME, cell-based

Substance	MIC [1]	MIC [2]	MIC [3]	MIC [4]	MIC [5]	MIC [6]	MIC [7]	MIC [8]	MIC [9]	MIC [10]	MIC [11]	MIC [12]	MIC [13]	MIC [14]	MIC [15]	MIC [16]	Activity [26]	Activity [27]	other results
H-PWRLRLRL-OH	4 µM	8 µM	8 µM	32 µM	4 µM	8 µM	32 µM	32 µM	32 µM	32 µM	4 µM	4 µM	4 µM	4 µM	4 µM	8 µM	Dose-Dependent Effect	Active	Activity [17]: Non-Toxic; Activity [18]: Non-Toxic; Activity [19]: Non-Toxic; Activity [20]: Non-Toxic; Activity [21]: 100%; Activity [22]: 100%; Activity [23]: Active; Activity [24]: Active; inhibition at 64 µM [25]: 74.6%; Activity [28]: inactive; Activity [29]: Active; Activity [30]: Non-Toxic; Activity [31]: Non-Toxic; Activity [32]: Non-Toxic; Activity [33]: Non-Toxic; Activity [34]: Non-Toxic
H-PFRLRLRL-OH	8 µM	8 µM	32 µM	64 µM	8 µM	16 µM	64 µM	64 µM	64 µM	64 µM	8 µM	8 µM	8 µM	8 µM	8 µM	8 µM	Dose-Dependent Effect	Active	Activity [17]: Non-Toxic; Activity [18]: Non-Toxic; Activity [19]: Non-Toxic; Activity [20]: Non-Toxic; Activity [21]: 100%; Activity [22]: 100%; Activity [35]: Active; Activity [24]: Active; inhibition [36]: Active
H-PFRLSLRL-OH	8 µM	32 µM	16 µM	64 µM	16 µM	16 µM	–	–	–	–	–	–	–	–	–	–	–	–	–
H-PFKLSLHL-OH	32 µM	32 µM	64 µM	128 µM	32 µM	64 µM	128 µM	128 µM	128 µM	128 µM	32 µM	32 µM	32 µM	32 µM	32 µM	32 µM	Dose-Dependent Effect	Active	Activity [37]: Toxic; inhibition [36]: Active
H-PWRLSLHL-OH	16 µM	32 µM	16 µM	32 µM	16 µM	8 µM	–	–	–	–	–	–	–	–	–	–	–	–	–
H-PWKLKLHL-OH	16 µM	32 µM	16 µM	64 µM	16 µM	32 µM	–	–	–	–	–	–	–	–	–	–	–	–	–
H-PFRLRLHL-OH	16 µM	32 µM	32 µM	128 µM	16 µM	34 µM	–	–	–	–	–	–	–	–	–	–	–	–	–
H-PWKLSLKL-OH	16 µM	32 µM	8 µM	32 µM	16 µM	16 µM	–	–	–	–	–	–	–	–	–	–	–	–	–
